Measurements from PMC7956971, “Fluorometric Liposome Screen for Inhibitors of a Physiologically Important Bacterial Ion Channel” (Frontiers in Microbiology, 2021).
Read-outs that look alike come from different tables or passages of the source.

What was measured:
NaKΔN19/F92A = molecular target: T1, NaKΔN19/F92A (Bacillus cereus, UniProt Q81HW2, F92A); settings: read-out: KI; no nucleotide; pH 8.0; KI defined as constant of 50% inhibition
T1 construct: gene BC_0669

KtrAB [1] = molecular target: T2, KtrAB (Bacillus subtilis, UniProt O32081); test: ACMA fluorescence K+ efflux assay in proteoliposomes, 96-well, Hill fit of final fluorescence; format: biochemical
T2 construct: gene ktrB; purified complex of dimeric membrane protein KtrB and octameric cytoplasmic KtrA ring, reconstituted in liposomes; with Ktr system potassium uptake protein A
T2 sequence (O32081 whole entry): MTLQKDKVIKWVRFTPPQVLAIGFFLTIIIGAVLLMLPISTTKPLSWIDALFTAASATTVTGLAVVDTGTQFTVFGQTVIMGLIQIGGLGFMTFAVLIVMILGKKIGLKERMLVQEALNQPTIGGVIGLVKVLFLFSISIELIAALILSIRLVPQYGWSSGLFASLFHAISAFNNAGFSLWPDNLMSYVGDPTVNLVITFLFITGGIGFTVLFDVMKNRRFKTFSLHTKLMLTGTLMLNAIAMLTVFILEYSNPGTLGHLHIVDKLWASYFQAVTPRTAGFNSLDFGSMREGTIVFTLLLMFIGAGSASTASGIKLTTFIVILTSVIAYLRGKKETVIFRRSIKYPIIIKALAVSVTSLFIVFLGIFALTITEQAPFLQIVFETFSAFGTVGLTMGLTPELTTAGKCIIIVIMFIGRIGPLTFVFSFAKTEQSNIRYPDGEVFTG
T2 sequence (O32080 whole entry, further chain): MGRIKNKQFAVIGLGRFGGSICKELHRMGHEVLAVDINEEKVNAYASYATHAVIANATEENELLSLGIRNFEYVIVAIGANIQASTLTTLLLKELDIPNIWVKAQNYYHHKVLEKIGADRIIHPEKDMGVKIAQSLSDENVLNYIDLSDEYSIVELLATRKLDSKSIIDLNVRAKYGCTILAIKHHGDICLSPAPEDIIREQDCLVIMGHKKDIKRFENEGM

KtrB = molecular target: T3, KtrB (Bacillus subtilis, UniProt O32081); test: as above; format: biochemical
T3 construct: purified membrane subunit KtrB alone (no KtrA), reconstituted in liposomes; dimer
T3 sequence (O32081 whole entry): as the sequence (O32081 whole entry) above

KtrAB [2] = molecular target: T4, KtrAB (Bacillus subtilis, UniProt O32081, R417K); test: ACMA fluorescence K+ efflux assay in proteoliposomes, single concentration; format: biochemical; settings: ATP form; also tested in the ADP form
T4 construct: gene ktrB; purified complex of dimeric membrane protein KtrB and octameric cytoplasmic KtrA ring, reconstituted in liposomes; with Ktr system potassium uptake protein A
T4 sequence (O32080 whole entry): as the sequence (O32080 whole entry, further chain) above
T4 sequence (O32081 whole entry R417K): as the sequence (O32081 whole entry) above, with R417K counted along it

T1 sequence (Q81HW2 19-110 F92A): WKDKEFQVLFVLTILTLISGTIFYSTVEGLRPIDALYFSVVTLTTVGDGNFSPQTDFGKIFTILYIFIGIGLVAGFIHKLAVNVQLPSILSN

Row | Structure (SMILES) | IC50 (KtrAB [1]; read-out: KI) [nM] | other results
1 | COc1ccc(CN2CCN(c3cccc(C)c3C)CC2)c(OC)c1 [compound 6, compound #6] | 1000 | IC50 (NaKΔN19/F92A): 16 µM
2 | COc1ccc(Br)cc1CNCCc1cccc(F)c1 [compound 39, compound #39] | – | IC50 (KtrAB [1]): 4000 nM; IC50 (KtrB): 3800 nM
3 | O=C(Nc1ccc(Cl)cc1)Nc1cccc(C(F)(F)F)c1 [compound 36, compound #36] | – | % inhibition at 6 μM (KtrAB [2]): all tested compounds showed inhibition with both the active and inactive forms of KtrABR417K; IC50 (KtrAB [1]; 0.1 mM ATP (active state), 0.5 mM MgCl2, pH 8.0, KI defined as constant of 50% inhibition, read-out: KI): 8000 nM; IC50 (KtrB; no nucleotide, KtrB alone, pH 8.0, KI defined as constant of 50% inhibition, read-out: KI): 500 nM
4 | Cc1cc(C)c(OCC(O)CNC(C)(C)CC(C)(C)C)c(C)c1 (centres unmarked) [compound 1, compound #1] | 2000 | IC50 (NaKΔN19/F92A): 14 µM
5 | Cc1cc(C)c(C)c(OCCCCN2CCCCC2)c1 [compound 25, compound #25] | 2000 | –
6 | CCCN1CCC(N(CCc2ccccc2)Cc2ccccc2)CC1 [compound 31, compound #31] | 1000 | –
7 | CCN(CC)CCn1c(=N)n(CC(=O)C23CC4CC(CC(C4)C2)C3)c2ccccc21 [compound 21, compound #21] | 800 | –
8 | CC1CCCC(C)N1CC(O)COc1ccc(Cl)cc1 (centres unmarked) [compound 41, compound #41] | 3000 | –
9 | OC(CN1CCCCCC1)CN(c1ccccc1)c1ccccc1 (centres unmarked) [compound 3, compound #3] | 2000 | –
